Assay results published in PubChem BioAssay AID1259407 (Chemical Carcinogenesis Research Information System (CCRIS), 2018).
Activity calls are given as the source filed them. The rule behind the calls is not given here.

System: CCRIS mutagenicity, Ames/micronucleus/aberration tests
Experiment: CCRIS mutagenicity studies

## Nc1ccccc1
Test System: AMES SALMONELLA TYPHIMURIUM, Strain/Indicator: TA1535, Metabolic Activation: RAT, LIVER, S-9, Method: STANDARD PLATE
  mutagenic call: inactive; negative
Test System: AMES SALMONELLA TYPHIMURIUM, Strain/Indicator: TA1537, Metabolic Activation: HAMSTER, LIVER, S-9, AROCLOR 1254, Method: STANDARD PLATE
  mutagenic call: inactive; negative
Test System: AMES SALMONELLA TYPHIMURIUM, Strain/Indicator: TA1537, Metabolic Activation: HAMSTER, LIVER, S-9, Method: STANDARD PLATE
  mutagenic call: inactive; negative
Test System: AMES SALMONELLA TYPHIMURIUM, Strain/Indicator: TA1537, Metabolic Activation: MOUSE, LIVER, S-9, AROCLOR 1254, Method: STANDARD PLATE
  mutagenic call: inactive; negative
Test System: AMES SALMONELLA TYPHIMURIUM, Strain/Indicator: TA1537, Metabolic Activation: MOUSE, LIVER, S-9, Method: STANDARD PLATE
  mutagenic call: inactive; negative
Test System: AMES SALMONELLA TYPHIMURIUM, Strain/Indicator: TA1537, Metabolic Activation: NONE, Method: STANDARD PLATE
  mutagenic call: inactive; negative
Test System: AMES SALMONELLA TYPHIMURIUM, Strain/Indicator: TA1537, Metabolic Activation: RAT, LIVER, S-9, AROCLOR 1254, Method: STANDARD PLATE
  mutagenic call: inactive; negative
Test System: AMES SALMONELLA TYPHIMURIUM, Strain/Indicator: TA1537, Metabolic Activation: RAT, LIVER, S-9, PYRAZOLE, Method: PREINCUBATION
  mutagenic call: inactive; negative
Test System: AMES SALMONELLA TYPHIMURIUM, Strain/Indicator: TA1537, Metabolic Activation: RAT, LIVER, S-9, Method: STANDARD PLATE
  mutagenic call: inactive; negative
Test System: AMES SALMONELLA TYPHIMURIUM, Strain/Indicator: TA1538, Metabolic Activation: HAMSTER, LIVER, S-9, AROCLOR 1254, Method: STANDARD PLATE
  mutagenic call: inactive; negative
Test System: AMES SALMONELLA TYPHIMURIUM, Strain/Indicator: TA1538, Metabolic Activation: HAMSTER, LIVER, S-9, Method: STANDARD PLATE
  mutagenic call: inactive; negative
Test System: AMES SALMONELLA TYPHIMURIUM, Strain/Indicator: TA1538, Metabolic Activation: HAMSTER, SPLEEN, S-9, AROCLOR 1254, Method: STANDARD PLATE
  mutagenic call: inactive; negative
Test System: AMES SALMONELLA TYPHIMURIUM, Strain/Indicator: TA1538, Metabolic Activation: MOUSE, LIVER, S-9, AROCLOR 1254, Method: STANDARD PLATE
  mutagenic call: inactive; negative
Test System: AMES SALMONELLA TYPHIMURIUM, Strain/Indicator: TA1538, Metabolic Activation: MOUSE, LIVER, S-9, Method: STANDARD PLATE
  mutagenic call: inactive; negative
Test System: AMES SALMONELLA TYPHIMURIUM, Strain/Indicator: TA1538, Metabolic Activation: NONE, Method: STANDARD PLATE
  mutagenic call: inactive; negative
Test System: AMES SALMONELLA TYPHIMURIUM, Strain/Indicator: TA1538, Metabolic Activation: RAT, LIVER, S-9, AROCLOR 1254, Method: PREINCUBATION
  mutagenic call: inactive; negative
Test System: AMES SALMONELLA TYPHIMURIUM, Strain/Indicator: TA1538, Metabolic Activation: RAT, LIVER, S-9, AROCLOR 1254, Method: STANDARD PLATE
  mutagenic call: inactive; negative
Test System: AMES SALMONELLA TYPHIMURIUM, Strain/Indicator: TA1538, Metabolic Activation: RAT, LIVER, S-9, Method: STANDARD PLATE
  mutagenic call: inactive; negative
Test System: AMES SALMONELLA TYPHIMURIUM, Strain/Indicator: TA1538, Metabolic Activation: RAT, SPLEEN, S-9, AROCLOR 1254, Method: STANDARD PLATE
  mutagenic call: inactive; negative
Test System: CHINESE HAMSTER V-79, Strain/Indicator: V-79/6-THIOGUANINE, Metabolic Activation: NONE, Method: SUSPENSION/PLATE
  mutagenic call: inactive; negative
Test System: CHINESE HAMSTER V-79, Strain/Indicator: V-79/6-THIOGUANINE, Metabolic Activation: RAT, LIVER, HEPATOCYTES, Method: SUSPENSION/PLATE
  mutagenic call: inactive; negative
Test System: CHINESE HAMSTER V-79, Strain/Indicator: V-79/6-THIOGUANINE, Metabolic Activation: RAT, LIVER, S-9, PHENOBARBITAL AND BETA-NAPHTHOFLAVONE, Method: SUSPENSION/PLATE
  mutagenic call: active; positive
Test System: CHINESE HAMSTER V-79, Strain/Indicator: V-79/8-AZAGUANINE, Metabolic Activation: NONE, Method: SUSPENSION/PLATE
  mutagenic call: active; positive
Test System: CHINESE HAMSTER V-79, Strain/Indicator: V-79/8-AZAGUANINE, Metabolic Activation: S-9, Method: SUSPENSION/PLATE
  mutagenic call: active; positive
Test System: CHINESE HAMSTER V-79, Strain/Indicator: V-79/OUABAIN, Metabolic Activation: NONE, Method: SUSPENSION/PLATE
  mutagenic call: inactive; negative
Test System: CHINESE HAMSTER V-79, Strain/Indicator: V-79/OUABAIN, Metabolic Activation: S-9, Method: SUSPENSION/PLATE
  mutagenic call: inactive; negative
Test System: E. COLI, Strain/Indicator: WP2 UVRA, Metabolic Activation: HAMSTER, LIVER, S-9, AROCLOR 1254, Method: PREINCUBATION
  mutagenic call: inactive; negative
Test System: E. COLI, Strain/Indicator: WP2 UVRA, Metabolic Activation: HAMSTER, LIVER, S-9, AROCLOR 1254, Method: STANDARD PLATE
  mutagenic call: inactive; negative
Test System: E. COLI, Strain/Indicator: WP2 UVRA, Metabolic Activation: HAMSTER, LIVER, S-9, Method: PREINCUBATION
  mutagenic call: inactive; negative
Test System: E. COLI, Strain/Indicator: WP2 UVRA, Metabolic Activation: HAMSTER, LIVER, S-9, Method: STANDARD PLATE
  mutagenic call: inactive; negative
Test System: E. COLI, Strain/Indicator: WP2 UVRA, Metabolic Activation: MOUSE, LIVER, S-9, AROCLOR 1254, Method: PREINCUBATION
  mutagenic call: inactive; negative
Test System: E. COLI, Strain/Indicator: WP2 UVRA, Metabolic Activation: MOUSE, LIVER, S-9, AROCLOR 1254, Method: STANDARD PLATE
  mutagenic call: inactive; negative
Test System: E. COLI, Strain/Indicator: WP2 UVRA, Metabolic Activation: MOUSE, LIVER, S-9, Method: PREINCUBATION
  mutagenic call: inactive; negative
Test System: E. COLI, Strain/Indicator: WP2 UVRA, Metabolic Activation: MOUSE, LIVER, S-9, Method: STANDARD PLATE
  mutagenic call: inactive; negative
Test System: E. COLI, Strain/Indicator: WP2 UVRA, Metabolic Activation: NONE, Method: FLUCTUATION TEST
  mutagenic call: inactive; negative
Test System: E. COLI, Strain/Indicator: WP2 UVRA, Metabolic Activation: NONE, Method: PREINCUBATION
  mutagenic call: inactive; negative
Test System: E. COLI, Strain/Indicator: WP2 UVRA, Metabolic Activation: NONE, Method: STANDARD PLATE
  mutagenic call: inactive; negative
Test System: E. COLI, Strain/Indicator: WP2 UVRA, Metabolic Activation: RAT, LIVER, S-9, AROCLOR 1254, Method: PREINCUBATION
  mutagenic call: inactive; negative
Test System: E. COLI, Strain/Indicator: WP2 UVRA, Metabolic Activation: RAT, LIVER, S-9, AROCLOR 1254, Method: STANDARD PLATE
  mutagenic call: inactive; negative
Test System: E. COLI, Strain/Indicator: WP2 UVRA, Metabolic Activation: RAT, LIVER, S-9, Method: PREINCUBATION
  mutagenic call: inactive; negative
Test System: E. COLI, Strain/Indicator: WP2 UVRA, Metabolic Activation: RAT, LIVER, S-9, Method: STANDARD PLATE
  mutagenic call: inactive; negative
Test System: MOUSE LYMPHOMA, Strain/Indicator: L5178Y (TK+/TK-), Metabolic Activation: NONE, Method: SUSPENSION/PLATE
  mutagenic call: active; positive
Test System: MOUSE LYMPHOMA, Strain/Indicator: L5178Y (TK+/TK-), Metabolic Activation: RAT, LIVER, S-9, AROCLOR 1254, Method: SUSPENSION/PLATE
  mutagenic call: active; positive
Test System: UDS RAT HEPATOCYTES, Strain/Indicator: BROMODEOXYURIDINE INCORP, Metabolic Activation: NONE, Method: FLOW CYTOMETRIC ANALYSIS
  mutagenic call: inactive; negative
Test System: UDS RAT HEPATOCYTES, Strain/Indicator: THY INCORP, Metabolic Activation: NONE, Method: AUTORADIOGRAPHY
  mutagenic call: inactive; negative
Test System: UDS RODENT HEPATOCYTES, Strain/Indicator: THY INCORP (NON-S-PHASE), Metabolic Activation: NONE, Method: AUTORADIOGRAPHY
  mutagenic call: inactive; negative
